Results taken from US12256759B2, “Methods for the reduction of methane production in ruminants” (Loam Bio Pty Ltd, priority 2021, dated 2025).

How the values were obtained:
methane production = conditions: among antimethanogenic compounds found in A. taxiformis; cited from earlier work
[1] = biological target: T1, methyl-coenzyme M reductase (MCR) (Methanothermobacter marburgensis, UniProt P11558); conditions: prevents the final catalysis step of methanogenesis; cited from earlier work
T1 sequence (P11558 1-550): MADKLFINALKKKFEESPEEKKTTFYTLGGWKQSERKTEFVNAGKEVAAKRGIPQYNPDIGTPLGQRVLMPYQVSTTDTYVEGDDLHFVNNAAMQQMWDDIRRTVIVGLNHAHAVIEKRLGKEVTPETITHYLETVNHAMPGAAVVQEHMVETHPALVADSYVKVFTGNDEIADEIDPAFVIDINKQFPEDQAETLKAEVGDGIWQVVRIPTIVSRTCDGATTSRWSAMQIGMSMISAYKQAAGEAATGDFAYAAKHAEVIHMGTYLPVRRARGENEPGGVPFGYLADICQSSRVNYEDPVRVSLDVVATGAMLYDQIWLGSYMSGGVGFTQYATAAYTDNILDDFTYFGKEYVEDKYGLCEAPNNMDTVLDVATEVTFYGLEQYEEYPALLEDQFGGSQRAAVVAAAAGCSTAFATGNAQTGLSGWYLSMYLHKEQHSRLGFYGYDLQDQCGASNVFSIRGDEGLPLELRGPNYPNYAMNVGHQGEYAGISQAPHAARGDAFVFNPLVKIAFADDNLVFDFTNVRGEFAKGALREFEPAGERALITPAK
T1 sequence (P11560 1-443 partner): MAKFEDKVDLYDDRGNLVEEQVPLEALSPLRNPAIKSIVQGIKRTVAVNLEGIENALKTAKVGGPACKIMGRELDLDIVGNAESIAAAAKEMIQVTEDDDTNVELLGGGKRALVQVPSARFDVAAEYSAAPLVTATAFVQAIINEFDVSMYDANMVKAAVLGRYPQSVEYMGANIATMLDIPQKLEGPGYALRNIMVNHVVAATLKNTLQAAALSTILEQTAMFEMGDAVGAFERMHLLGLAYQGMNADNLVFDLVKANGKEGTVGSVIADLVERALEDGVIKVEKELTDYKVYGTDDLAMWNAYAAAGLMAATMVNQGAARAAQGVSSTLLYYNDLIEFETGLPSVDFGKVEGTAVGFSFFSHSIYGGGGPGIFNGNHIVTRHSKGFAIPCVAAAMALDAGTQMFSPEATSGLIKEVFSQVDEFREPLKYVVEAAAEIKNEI
T1 sequence (P11562 1-249 partner): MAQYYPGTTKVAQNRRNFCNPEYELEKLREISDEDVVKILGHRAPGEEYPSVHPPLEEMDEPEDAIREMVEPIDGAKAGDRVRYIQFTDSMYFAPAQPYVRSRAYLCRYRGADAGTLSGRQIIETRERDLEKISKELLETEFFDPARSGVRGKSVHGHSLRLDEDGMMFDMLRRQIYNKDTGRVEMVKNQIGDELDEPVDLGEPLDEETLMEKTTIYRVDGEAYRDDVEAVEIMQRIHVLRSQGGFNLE

[2] = tested on: Methanobrevibacter smithii; conditions: 100 ul chloroform, positive control

SMILES: BrC(Br)Br [bromoform]
- activity at inhibiting methane production (methane production): highest activity at inhibiting methane production
- mode of action on methyl-coenzyme M reductase (MCR) [1]: competitive inhibitor or analog

SMILES: ClC(Cl)Cl [chloroform]
- inhibition of methane production [2]: dramatic inhibition in methane production

SMILES: ClC(Br)Br [dibromochloromethane]
- activity at inhibiting methane production (methane production): highest activity at inhibiting methane production
